Assay results from patent publication US10077237B2 (Sanofi, priority 2013, dated 2018).
Where “and” joins values, the source holds several entries; their conditions need not be identical. Equal entries are not always repeated. Structures can show the parent of a compound that is named as a salt.

Molecular target: T1, recombinant human AMPK complex, containing α2β1γ2 (Homo sapiens, UniProt P54646+Q9Y478)
T1 construct: hsAMPKα2-552-His, hsAMPKβ1-2-270 and hsAMPKγ-2-569 respectively; hsAMPKβ1-2-270; hsAMPKγ-2-569; His (C); made in house; host or cells: Spodoptera frugiperda Sf21 (baculovirus)
T1 sequence (P54646 2-552): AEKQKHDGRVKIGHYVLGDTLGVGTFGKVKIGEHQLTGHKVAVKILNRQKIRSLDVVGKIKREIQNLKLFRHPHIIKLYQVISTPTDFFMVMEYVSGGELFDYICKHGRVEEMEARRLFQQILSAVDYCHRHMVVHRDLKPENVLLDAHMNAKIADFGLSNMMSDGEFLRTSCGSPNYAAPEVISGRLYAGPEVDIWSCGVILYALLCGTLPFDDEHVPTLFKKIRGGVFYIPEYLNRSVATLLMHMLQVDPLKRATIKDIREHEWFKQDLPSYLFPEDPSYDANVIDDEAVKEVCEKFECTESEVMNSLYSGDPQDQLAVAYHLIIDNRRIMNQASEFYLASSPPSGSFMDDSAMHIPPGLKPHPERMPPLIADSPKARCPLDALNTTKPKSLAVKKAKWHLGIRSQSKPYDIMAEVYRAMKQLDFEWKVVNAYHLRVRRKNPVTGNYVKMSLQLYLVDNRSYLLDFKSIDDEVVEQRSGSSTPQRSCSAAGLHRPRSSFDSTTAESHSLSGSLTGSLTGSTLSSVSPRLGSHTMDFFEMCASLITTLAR
T1 sequence (Q9Y478 2-270): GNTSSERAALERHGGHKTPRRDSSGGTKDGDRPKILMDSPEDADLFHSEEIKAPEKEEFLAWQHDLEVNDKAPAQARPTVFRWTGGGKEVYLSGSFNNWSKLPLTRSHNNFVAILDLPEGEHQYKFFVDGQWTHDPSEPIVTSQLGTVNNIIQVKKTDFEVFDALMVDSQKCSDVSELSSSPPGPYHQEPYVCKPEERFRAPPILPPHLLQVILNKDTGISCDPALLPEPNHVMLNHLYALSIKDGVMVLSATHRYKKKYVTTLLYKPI
T1 sequence (Q9UGJ0 2-569 partner limits assumed): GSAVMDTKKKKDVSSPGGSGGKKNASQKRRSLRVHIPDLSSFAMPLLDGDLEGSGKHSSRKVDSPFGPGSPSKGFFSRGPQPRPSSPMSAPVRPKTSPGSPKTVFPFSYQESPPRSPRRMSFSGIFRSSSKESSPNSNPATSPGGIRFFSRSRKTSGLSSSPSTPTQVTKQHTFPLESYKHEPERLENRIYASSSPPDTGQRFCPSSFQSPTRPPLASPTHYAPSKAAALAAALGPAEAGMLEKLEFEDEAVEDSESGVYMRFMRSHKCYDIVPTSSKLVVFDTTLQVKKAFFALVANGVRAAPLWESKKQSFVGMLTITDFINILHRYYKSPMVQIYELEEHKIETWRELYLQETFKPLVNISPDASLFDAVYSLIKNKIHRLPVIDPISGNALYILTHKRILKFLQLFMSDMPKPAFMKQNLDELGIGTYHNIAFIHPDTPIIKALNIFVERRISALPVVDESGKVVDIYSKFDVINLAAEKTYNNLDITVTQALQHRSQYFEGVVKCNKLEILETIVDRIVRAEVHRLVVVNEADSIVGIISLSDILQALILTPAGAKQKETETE
Assay: AMPK in vitro activation assay (HTRF)
Type: biochemical
Settings: for EC50: HTRF, recombinant human α2β1γ2 AMPK, 200 μM ATP, biotinylated ACC-CREBp peptide, repeat determinations on separate lines; for Emax: potentiation of AMPK activity as percent over the basal signal (without compound)
How it was run: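 HTRF phosphorylation read-out (Eu-cryptate anti-pS133-CREB, streptavidin-XL665) after a 45 min, 37° C kinase step. This step was initiated by a solution with 200 μM ATP and 2 or 0.08 μM biotinylated ACC-CREBp peptide. Beforehand, compound sat 30 min at room temperature with baculovirus/Sf21 α2β1γ2 in pH 7.0 HEPES buffer; EC50 derived from activation over basal.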

Row | SMILES | EC50 | Emax [%]
1 | O=C1Nc2cc(Cl)c(-c3ccc(C4(CO)CC4)cc3)cc2C1=C(O)c1ccc(F)cc1F [Compound 141, 6-chloro-3-[(2,4-difluorophenyl)hydroxy-methylene]-5-[4-[1-(hydroxymethyl)cyclopropyl]phenyl]indolin-2-one] | 2 nM | 229
2 | O=C1Nc2cc(Cl)c(-c3ccc(N4CCOCC4)cc3)cc2C1=C(O)c1cccc(C(F)(F)F)c1 [Compound 40, 6-Chloro-3-[1-hydroxy-1-(3-trifluoromethyl-phenyl)-methylidene]-5-(4-morpholin-4-yl-phenyl)-1,3-dihydro-indol-2-one] | 720 nM | 121
3 | Cc1cc(C(O)=C2C(=O)Nc3cc(Cl)c(-c4ccc(N5CCOCC5)cc4)cc32)sn1 [Compound 13, 6-Chloro-3-[1-hydroxy-1-(3-methyl-isothiazol-5-yl)-methylidene]-5-(4-morpholin-4-yl-phenyl)-1,3-dihydro-indol-2-one] | 12 nM and 5 nM | 
4 | Cn1ccc(C(O)=C2C(=O)Nc3cc(Cl)c(-c4ccc(N5CCOCC5)cc4)cc32)n1 [Compound 53, 6-Chloro-3-[1-hydroxy-1-(1-methyl-1H-pyrazol-3-yl)-methylidene]-5-(4-morpholin-4-yl-phenyl)-1,3-dihydro-indol-2-one] | 1710 nM | 180
5 | Cc1cc(C(O)=C2C(=O)Nc3cc(Cl)c(-c4ccc(O)cc4)cc32)on1 [Compound 33, 6-Chloro-3-[1-hydroxy-1-(3-methyl-isoxazol-5-yl)-methylidene]-5-(4-hydroxy-phenyl)-1,3-dihydro-indol-2-one] | 390 nM | 120
6 | Cc1cc(C(O)=C2C(=O)Nc3cc(Cl)c(-c4ccc(C5CCCO5)cc4)cc32)on1 (centres unmarked) [Compound 68, 6-Chloro-3-[1-hydroxy-1-(3-methyl-isoxazol-5-yl)methylidene]-5-[4-(tetrahydro-furan-2-yl)phenyl]-1,3-dihydro-indol-2-one] | 150 nM | 208
7 | Cc1cc(C(O)=C2C(=O)Nc3cc(Cl)c(-c4ccc(Cl)cc4)cc32)on1 [Compound 63, 6-Chloro-5-(4-chloro-phenyl)-3-[1-hydroxy-1-(3-methyl-isoxazol-5-yl)-methylidene]-1,3-dihydro-indol-2-one] | 4020 nM | 134
8 | O=C1Nc2cc(Cl)c(-c3ccc(C4(CO)CC4)cc3)cc2C1=C(O)c1cc2ccccc2o1 [Compound 168, 3-[benzofuran-2-yl(hydroxy)methylene]6-chloro-5-[4-[1-(hydroxymethyl)cyclopropyl]phenyl]indolin-2-one] | 0.3 nM | 173
9 | O=C1Nc2cc(Cl)c(-c3ccc(N4CCOCC4)cc3)cc2C1=C(O)c1cc(C2CCCCC2)no1 [Compound 86, 6-chloro-3-[(3-cyclohexylisoxazol-5-yl)hydroxy-methylene]-5-(4-morpholinophenyl)indolin-2-one] | 61 nM | 155
10 | O=C1Nc2cc(Cl)c(-c3ccc(C4(CO)CC4)cc3)cc2C1=C(O)c1cc2ncccc2o1 [Compound 169, 6-chloro-3-[furo[3,2-b]pyridin-2-yl(hydroxy)methylene]-5-[4-[1-(hydroxymethyl)cyclopropyl]phenyl]indolin-2-one] | 0.1 nM | 172
11 | COc1ccc(C(O)=C2C(=O)Nc3cc(Cl)c(-c4ccc(-c5cccc(OC)c5O)cc4)cc32)cc1F [Compound 84, 6-chloro-3-[(3-fluoro-4-methoxy-phenyl)hydroxy-methylene]-5-[4-(2-hydroxy-3-methoxy-phenyl)phenyl]indolin-2-one] | 0.6 nM and 1 nM | 170
12 | Cc1cc(C(O)=C2C(=O)Nc3cc(Cl)c(-c4ccc(C5(CO)CC5)cc4)cc32)sn1 [Compound 23, 6-Chloro-5-[4-(1-hydroxymethyl-cyclopropyl)-phenyl]-3-[1-hydroxy-1-(3-methyl-isothiazol-5-yl)-methylidene]-1,3-dihydro-indol-2-one] | 3 nM | 158
13 | O=C1Nc2cc(Cl)c(-c3ccc(N4CCOCC4)cc3)cc2C1=C(O)c1cc(O)no1 [Compound 102, 6-chloro-3-[hydroxy-(3-hydroxyisoxazol-5-yl)methylene]-5-(4-morpholinophenyl)indolin-2-one] | 2 nM | 122
14 | Cc1cc(C(O)=C2C(=O)Nc3cc(Cl)c(-c4ccc(OCCN5CCOCC5)cc4)cc32)on1 [Compound 82, 6-chloro-3-[hydroxy-(3-methylisoxazol-5-yl)methylene]-5-[4-(2-morpholinoethoxy)phenyl]indolin-2-one hydrochloride] | 280 nM | 130
15 | Cc1cc(C(O)=C2C(=O)Nc3cc(Cl)c(-c4ccc(-c5csc(N)n5)cc4)cc32)on1 [Compound 37, 5-[4-(2-Amino-thiazol-4-yl)-phenyl]-6-chloro-3-[1-hydroxy-1-(3-methyl-isoxazol-5-yl)-methylidene]-1,3-dihydro-indol-2-one] | 37 nM | 192
16 | COc1cc(C(O)=C2C(=O)Nc3cc(Cl)c(-c4ccc(C5CC(OC)C5)cc4)cc32)on1 (centres unmarked) [Compound 165, 6-chloro-3-[hydroxy-(3-methoxyisoxazol-5-yl)methylene]-5-[4-(3-methoxycyclobutyl)phenyl]indolin-2-one] | 18 nM | 218
17 | Cc1cc(C(O)=C2C(=O)Nc3cc(F)c(-c4ccc(N5CCOCC5)cc4)cc32)on1 [Compound 29, 6-Fluoro-3-[1-hydroxy-1-(3-methyl-isoxazol-5-yl)-methylidene]-5-(4-morpholin-4-yl-phenyl)-1,3-dihydro-indol-2-one] | 58 nM | 157
18 | COc1cccc(C(O)=C2C(=O)Nc3cc(Cl)c(-c4ccc(N5CCOCC5)cc4)cc32)c1 [Compound 50, 6-Chloro-3-[1-hydroxy-1-(3-methoxy-phenyl)-methylidene]-5-(4-morpholin-4-yl-phenyl)-1,3-dihydro-indol-2-one] | 40 nM | 
19 | O=C1Nc2cc(Cl)c(-c3ccc(C4CC(O)C4)cc3)cc2C1=C(O)c1cc(C2CC2)no1 (centres unmarked) [Compound 174, 6-chloro-3-[(3-cyclopropylisoxazol-5-yl)hydroxy-methylene]-5-[4-(3-hydroxycyclobutyl)phenyl]indolin-2-one] | 1 nM | 185
20 | COc1cc(C(O)=C2C(=O)Nc3cc(Cl)c(-c4ccc(C5=CCOCC5)cc4)cc32)on1 [Compound 67, 6-Chloro-5-[4-(3,6-dihydro-2H-pyran-4-yl)phenyl]-3-[1-hydroxy-1-(3-methoxy-isoxazol-5-yl)methylidene]-1,3-dihydro-indol-2-one] | 3 nM | 192
21 | COc1cc(C(O)=C2C(=O)Nc3cc(Cl)c(-c4ccc(C5(CO)CC5)c(F)c4)cc32)on1 [Compound 96, 6-chloro-5-[3-fluoro-4-[1-(hydroxymethyl)cyclopropyl]phenyl]-3-[hydroxy-(3-methoxyisoxazol-5-yl)methylene]indolin-2-one] | 0.3 nM and 0.2 nM | 
22 | Cc1nocc1C(O)=C1C(=O)Nc2cc(Cl)c(-c3ccc(N4CCOCC4)cc3)cc21 [Compound 60, 6-Chloro-3-[1-hydroxy-1-(3-methyl-isoxazol-4-yl)-methylidene]-5-(4-morpholin-4-yl-phenyl)-1,3-dihydro-indol-2-one] | 770 nM | 298
